Where a chain is given by its changes, count along the chain named.
How the values were obtained:
ASCT2 = target: T1, ASCT2 (Homo sapiens, UniProt Q15758); experiment: Two electrode voltage clamp, substrate-activated anion current in oocytes expressing ASCT2; format: cell-based
T1 sequence (Q15758 1-541): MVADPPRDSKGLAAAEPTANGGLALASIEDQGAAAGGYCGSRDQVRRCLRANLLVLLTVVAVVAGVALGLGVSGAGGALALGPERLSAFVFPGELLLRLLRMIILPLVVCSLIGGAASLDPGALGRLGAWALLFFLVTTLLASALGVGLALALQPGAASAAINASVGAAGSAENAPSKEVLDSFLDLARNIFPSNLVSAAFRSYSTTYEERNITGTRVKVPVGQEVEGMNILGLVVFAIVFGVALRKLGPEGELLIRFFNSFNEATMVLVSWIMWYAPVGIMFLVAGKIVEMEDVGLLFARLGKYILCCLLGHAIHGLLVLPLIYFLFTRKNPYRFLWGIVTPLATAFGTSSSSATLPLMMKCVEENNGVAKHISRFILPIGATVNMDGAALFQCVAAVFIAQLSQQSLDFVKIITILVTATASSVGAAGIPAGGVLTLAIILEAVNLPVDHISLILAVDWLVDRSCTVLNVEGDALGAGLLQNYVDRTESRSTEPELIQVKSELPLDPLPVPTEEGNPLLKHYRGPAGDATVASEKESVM
Procedure: All chemicals were obtained from Sigma unless otherwise stated. Stage V oocytes were harvested from female Xenopus laevis (frogs) which were obtained from Nasco (Fort Alkinson, USA). Frogs were anaesthetised with 6.5 mM tricaine neutralised with 7.14 mM sodium bicarbonate. After making an incision in the abdomen of the frog, ovarian sacs were removed and stored in OR-2 buffer (82.5 mM NaCl, 2 mM KCl, 1 mM MgCl2, 5 mM hemisodium HEPES, pH 7.5). This surgical procedure follows a protocol (#2016/970) approved by the University of Sydney Animal Ethics Committee under the Australian Code of Practice for the Care and Use of Animals for Scientific Purposes. […]
After 2–4 days of microinjection, current recordings were made using the two electrode voltage clamp technique with a Geneclamp 500 amplifier (Axon Instruments, Foster City, CA) interfaced with a MacLab 2e chart recorder (ADI Instruments, Sydney, Australia) using the chart software, and a Digidata 1322A (Axon Instruments) controlled by an IBM-compatible computer using the pClamp software (version 10, Molecular Devices, Union City, CA). […] Current–voltage relationships were calculated by subtracting steady state current measurements in the absence of substrate from corresponding current measurements in the presence of substrate. […]

[1] = target: T2, A2-S481T/C482T (mutant ASCT2) (Homo sapiens, UniProt Q15758, C467T/S466T); experiment: Radiolabelled uptake in oocytes expressing A2-S481T/C482T; format: cell-based; conditions: 10 µM L-[3H]substrate, 10 min, room temperature
T2 construct: expressed in transfected cells; host or cells: Xenopus laevis oocytes (cRNA injection)
T2 sequence (Q15758 1-541 S466T/C467T): T1 sequence (Q15758 1-541) with S466T, C467T

SMILES	GPNA % inhibition of L-serine activated current (ASCT2; GPNA co-applied with EC50 of L-serine, 300 µM GPNA / 1 mM GPNA (Table 1 footnote))	IC50 (ASCT2; co-applied with EC50 of L-serine, read-out: IC50 for inhibition of L-serine activated current)	Radiolabelled substrate uptake into oocytes (in words) [1]
N[C@@H](CCC(=O)Nc1ccc([N+](=O)[O-])cc1)C(=O)O [GPNA, glutamyl-p-nitroanilide]	90 ± 5%	90 ± 20 µM	–
N[C@@H](CO)C(=O)O [L-serine]	–	–	displays uptake

— paper PMC5750217 (Nature Communications, 2018)
